# Data taken from patent US20090068290A1, “BIFEPRUNOX DOSES FOR TREATING SCHIZOPHRENIA” (priority 2006, published 2009).
# Legend:
# Assay type in all cases: in vivo, human
# [1] = tested on: adult subjects with schizophrenia; test: PANSS positive symptom subscale score, Clinical Study Three; conditions: Olanzapine 15 mg, LOCF, ITT
# Description: SECONDARY OBJECTIVES To assess the efficacy of bifeprunox in treating schizophrenia using the Positive Symptom sub-scale score of the PANSS, the Negative Symptom sub-scale score of the PANSS, the General Psychopathology sub-scale of the PANSS, Brief Psychiatric Rating Scale (BPRS) total score derived from the PANSS, BPRS psychosis score derived from the PANSS, the Clinical Global Impression Severity of Illness score (CGI-S), the Clinical Global Impression Improvement score (CGI-I), CGI-I responder rate, PANSS responder rate based on the PANSS total score, Calgary Depression Scale for Schizophrenia (CDSS), and Subject Satisfaction rating.
# There were four treatment arms in this study, approximately 144 subjects per arm. […] After completing the Single-Blind Placebo Lead-in Period of at least three days, bifeprunox-treated subjects were titrated from 0.25 mg up to 20 mg/day or 30 mg/day according to a standardized titration scheme over a seven- or eight-day period, respectively. When the assigned dose was reached, subjects were maintained at that dose for the remainder of the six week treatment period. […] Subjects were hospitalized (if not already inpatients) after eligibility for study entry was verified, starting from the Screening Visit until at least 10 days after Baseline. Subjects could be hospitalized longer than 10 days if considered medically necessary by the Investigator. Rating scale assessments for efficacy and abnormal movement disorders were done weekly except for Week 5. […] Subject satisfaction with study medication was assessed at Week 6.
# [2] = tested on: adult subjects with schizophrenia; test: CGI responder rate, Clinical Study One; conditions: 6 mg
# Protocol: There were five treatment groups in this study. […] Study medication was administered once daily. After Baseline measurements were performed, the titration phase was begun. Bifeprunox treated subjects were titrated up to 5 mg, 10 mg or 20 mg according to a standardized titration schedule (Day 1: 0.125 mg, Day 2: 0.25 mg, Day 3: 0.5 mg, Day 4: 1.0 mg, Day 5: 2.0 mg, Day 6: 5.0 mg, Day 7: 10.0 mg, Day 8: 20 mg). When the assigned dose was reached, subjects were maintained at that dose for the remainder of the six-week treatment period.
# CLINICAL STUDY ONE: A CGI responder is defined as a subject who is categorized as “very much improved” or “much improved” on the CGI Improvement scale.
# [3] = tested on: adult subjects with schizophrenia; test: PANSS total score, Clinical Study Two (6-week, risperidone-referenced); conditions: Risperidone 6 mg, LOCF, ITT
# Protocol: Treatment started with a single-blind placebo lead-in period of at least three days, followed by titration from 0.25 mg up to 30 mg/day or 40 mg/day of bifeprunox for bifeprunox-treated subjects.
# (§1) Rating scale assessments were performed weekly, except for week 5, to measure the change from baseline to endpoint of the PANSS total score. Other assessments included: PANSS positive symptom subscale score, PANSS negative symptom subscale score, PANSS general pschopathology subscale score, BPRS total score, BPRS psychosis score, the CGI-S score, the CGI-I score, responder rates based on the PANSS total score, and the Calgary Depression Scale for Schizophrenia (CDSS).
# Subjects who completed this study had the option to continue in the long-term. […] After completing a Single-Blind placebo lead-in period of at least three days, bifeprunox-treated subjects were titrated from 0.25 mg up to 30 mg/day or 40 mg/day according to a standardized titration scheme over an eight-day period. When the assigned dose was reached, subjects were maintained at that dose for the remainder of the six week treatment period. […] Rating scale assessments for efficacy and abnormal movement disorders were done weekly except for Week 5. Safety assessments were performed at Screening, during treatment and at the end of the study. Subject satisfaction with study medication was assessed at Week 6. Samples of blood were obtained at Weeks 2, 4, and 6 for determination of bifeprunox in plasma. Blood samples were also obtained at Screening/Baseline, Week 3, and Week 6 for clinical laboratory assessments.
# Diagnosis and Main Criteria for Inclusion: Male or female subjects 18-75 years of age with schizophrenia (per DSM-IV-TR criteria). Subjects had to have a total score on the PANSS between 70 and 120; at least two of four PANSS items (conceptual disorganization, hallucinatory behavior, suspiciousness, unusual thought content) had to have a score ≧4; and the score on the CGI-S had to be at least 4.
# [4] = tested on: adult subjects with schizophrenia; test: BPRS total score, Clinical Study Two; conditions: LOCF; for Change from Baseline in BPRS Total Score, Mean (SD) / Change from Baseline in BPRS Total Score, Median: Risperidone 6 mg, ITT population
# Protocol: as §1, with “(CDSS). […]” for “(CDSS).”
# Subjects who completed this study had the option to continue in the long-term. […] Blood samples were also obtained at Screening/Baseline, Week 3, and Week 6 for clinical laboratory assessments.
structure (smiles),measurement,setting,value
"Cc1cc2c(s1)Nc1ccccc1N=C2N1CCN(C)CC1 [Olanzapine, olanzapine, reference compound]","Change from Baseline in PANSS Positive Symptom Subscale Score, Mean (SD)",[1]; Week 1,−3.0 (3.3)
same,"Change from Baseline in PANSS Positive Symptom Subscale Score, Median",[1]; Week 1,−2
same,"Change from Baseline in PANSS Positive Symptom Subscale Score, Mean (SD)",[1]; Week 2,−4.9 (4.0)
same,"Change from Baseline in PANSS Positive Symptom Subscale Score, Median",[1]; Week 2,−5
same,"Change from Baseline in PANSS Positive Symptom Subscale Score, Mean (SD)",[1]; Week 3,−6.0 (4.9)
same,"Change from Baseline in PANSS Positive Symptom Subscale Score, Median",[1]; Week 3,−6
same,"Change from Baseline in PANSS Positive Symptom Subscale Score, Mean (SD)",[1]; Week 4,−6.4 (5.4)
same,"Change from Baseline in PANSS Positive Symptom Subscale Score, Median",[1]; Week 4,−7
same,"Change from Baseline in PANSS Positive Symptom Subscale Score, Mean (SD)",[1]; Week 6/Endpoint,−7.0 (5.8)
same,"Change from Baseline in PANSS Positive Symptom Subscale Score, Median",[1]; Week 6/Endpoint,−7
"Cc1nc2n(c(=O)c1CCN1CCC(c3noc4cc(F)ccc34)CC1)CCCC2 [Risperidone, risperidone, reference compound]","CGI Responder at Endpoint (LOCF), %",[2],36%
same,"Change from Baseline in PANSS Total Score, Mean (SD)",[3]; Week 1,−8.7 (10.2)
same,"Change from Baseline in PANSS Total Score, Median",[3]; Week 1,−9
same,"Change from Baseline in PANSS Total Score, Mean (SD)",[3]; Week 2,−14.8 (14.2)
same,"Change from Baseline in PANSS Total Score, Median",[3]; Week 2,−15
same,"Change from Baseline in PANSS Total Score, Median",[3]; Week 3,−18
same,"Change from Baseline in PANSS Total Score, Mean (SD)",[3]; Week 4,−19.2 (17.0)
same,"Change from Baseline in PANSS Total Score, Median",[3]; Week 4,−20
same,"Change from Baseline in PANSS Total Score, Mean (SD)",[3]; Week 6/Endpoint,−19.7 (19.3)
same,"Change from Baseline in PANSS Total Score, Median",[3]; Week 6/Endpoint,−21
same,"Change from Baseline in BPRS Total Score, Mean (SD)",[4]; Week 1,−5.5 (6.3)
same,"Change from Baseline in BPRS Total Score, Median",[4]; Week 1,−5
same,"Change from Baseline in BPRS Total Score, Mean (SD)",[4]; Week 2,−9.1 (8.5)
same,"Change from Baseline in BPRS Total Score, Median",[4]; Week 2,−9
same,"Change from Baseline in BPRS Total Score, Mean (SD)",[4]; Week 3,−10.7 (9.4)
same,"Change from Baseline in BPRS Total Score, Median",[4]; Week 3,−11
same,"Change from Baseline in BPRS Total Score, Median",[4]; Week 4,−13
same,"Change from Baseline in BPRS Total Score, Mean (SD)",[4]; Week 6/Endpoint,−12.2 (11.7)
same,"Change from Baseline in BPRS Total Score, Median",[4]; Week 6/Endpoint,−13
same,mean change (SD) from Baseline to Endpoint in BPRS total score,"[4]; risperidone 6 mg, ITT",−12.2 (11.7)
